In patent US20260232753A1, “COMPOSITION FOR TREATING MACULAR DEGENERATION COMPRISING NOVEL PEPTIDE” (EYEBIOKOREA, INC., priority 2021, published 2026):
Converted amounts (≈) assume the structure as drawn. Where a SMILES comes first, the peptide text is derived from it. Where no end group is shown, it is not given here. [ ]: non-standard residue; d: D form. Hyp = O=C(O)[C@@H]1C[C@@H](O)CN1; Tle = CC(C)(C)[C@H](N)C(=O)O; Aib = CC(C)(N)C(=O)O

Assays:
[1] = Solubility of the peptide in water (Korean Pharmacopoeia method); assay type: physicochemical; conditions: 20±5° C.; for solubility: within 30 minutes
Experimental: In order to evaluate the solubility of the peptide of the present invention, an experiment was performed as follows.
The solubility test was conducted based on the Korean Pharmacopoeia method, and the solubility was determined as the degree to which 0.1 g of peptide was dissolved within 30 minutes when added to 10 mL of water and shaken vigorously for 30 seconds every 5 minutes at 20±5° C.

[2] = Stability of the peptide: content analysis by HPLC in aqueous solution under harsh conditions; assay type: physicochemical
Experimental: In order to evaluate the stability of the peptide of the present invention, an experiment was performed as follows.
The stability of the peptide was confirmed through content analysis in an aqueous solution at 40° C., 75% humidity, and harsh conditions, and was analyzed using HPLC under the following conditions. • Analysis column: C18 (4.6 Y 250 mm, 5 μm, YMC Hydrosphere) • Analysis wavelength: ultraviolet absorption spectrophotometer (210 nm) • Injection volume/Flow rate: 10 μL/0.8 mL/min • Column temperature: 45° C. • Mobile phase: 0.1 M phosphate buffer methanol mixture (83:17)

[3] = tested on: choroidal neovascularization (CNV); experiment: Inhibition of choroidal neovascularization: electroretinography, b-wave amplitude as indicator of retinal function; assay type: in vivo, C57BL/6 mice; conditions: laser-induced CNV; 1 μL intravitreal, peptide 10 mg/mL or aflibercept 20 mg/mL; single white light 0.9 cd·sec/m^2
Source text: (§1) The CNV animal model used in the present invention is a mouse model in which lesions are induced by irradiating a laser to the choroid of C57BL/6 mice using a laser slit system. The laser-induced CNV model, first described in 1979, uses photocoagulation to disturb Bruch's membrane to induce the growth of choroidal neovascularization into the retina area, and it is similar in development to neovascular disease in the human retina, that is, wet macular degeneration (wet AMD), in that neovascularity arises from the choroid. In addition, the laser-induced CNV model was successful in predicting the clinical efficacy of anti-vascular endothelial growth factor (VEGF) treatment for neovascular AMD, and is an animal model used in the development stage of existing therapeutic agents (Gong Y, Li J, Sun Y, Fu Z, Liu C H, Evans L, et al. (2015) Optimization of an Image-Guided Laser-Induced Choroidal Neovascularization Model in Mice. PLOS ONE 10 (7)).
(§2) In order to evaluate the efficacy of the peptide of the present invention to inhibit the choroidal neovascularization (CNV), an experiment was performed as follows.
The eyes of 7-8 week old C57BL/6 mice were instilled with a mydriatic agent to dilate the pupils, and the mice were anesthetized by intraperitoneal injection of ketamine (50 mg/kg) and rompun (23.32 mg/kg). A slit-lamp laser injection system was used to irradiate the laser to the choroid of each eye of the mouse four times in the 12 o'clock, 3 o'clock, 6 o'clock, and 9 o'clock directions. At this time, the laser irradiation conditions were 532 nm, 80 msec, and 240 mW. Immediately after laser irradiation, 1 μL of each peptide at a concentration of 10 mg/mL or aflibercept at a concentration of 20 mg/mL, which was dissolved in PBS, was injected into the vitreous body using a syringe. For electroretinogram analysis, dark adaptation was performed for more than 12 hours. The mice were subjected to mydriasis in a dark room and anesthetized, and then electroretinography was performed by contacting the ground electrode to the tail, the reference electrode to the head, and the corneal electrode to the cornea. The response values were obtained by stimulating the retina with a single white light of 0.9 cd·sec/m^2 flash intensity, and the amplitude, which is determined from the trough of the a-wave to the peak of the b-wave, was measured and evaluated as an indicator of retinal function. The results of all tests are expressed as mean #standard deviation, and significance was verified using one-way ANOVA and Kruskal-wallis test.

[4] = tested on: choroidal neovascularization (CNV); experiment: Inhibition of choroidal neovascularization: optical coherence tomography, size of CNV lesion, intravitreal injection; assay type: in vivo, C57BL/6 mice; conditions: laser-induced CNV; 1 μL intravitreal, peptide 10 mg/mL or aflibercept 20 mg/mL; ten days after administration; OCT
Source text: as §1, §2
The eyes of 7-8 week old C57BL/6 mice were instilled with a mydriatic agent to dilate the pupils, and the mice were anesthetized by intraperitoneal injection of ketamine (50 mg/kg) and rompun (23.32 mg/kg). A slit-lamp laser injection system was used to irradiate the laser to the choroid of each eye of the mouse four times in the 12 o'clock, 3 o'clock, 6 o'clock, and 9 o'clock directions. At this time, the laser irradiation conditions were 532 nm, 80 msec, and 240 mW. Immediately after laser irradiation, 1 μL of each peptide at a concentration of 10 mg/mL or aflibercept at a concentration of 20 mg/mL, which was dissolved in PBS, was injected into the vitreous body using a syringe. Ten days after drug administration, the mice were anesthetized, and the CNV lesions induced by laser were calculated and expressed as μm^2 using the ImageJ program by transmitting an OCT beam for each burn. The results of all tests are expressed as mean±standard deviation, and significance was verified using one-way ANOVA and Kruskal-wallis test.

[5] = tested on: choroidal neovascularization (CNV); experiment: Inhibition of choroidal neovascularization: fluorescence value (CTF) at the CNV site by FFA, laser-induced CNV model, intravitreal injection; assay type: in vivo, C57BL/6 mice; conditions: laser-induced CNV; 1 μL intravitreal, peptide 10 mg/mL or aflibercept 20 mg/mL; ten days after administration; lower CTF = less CNV
Source text: as §1, §2
The eyes of 7-8 week old C57BL/6 mice were instilled with a mydriatic agent to dilate the pupils, and the mice were anesthetized by intraperitoneal injection of ketamine (50 mg/kg) and rompun (23.32 mg/kg). A slit-lamp laser injection system was used to irradiate the laser to the choroid of each eye of the mouse four times in the 12 o'clock, 3 o'clock, 6 o'clock, and 9 o'clock directions. At this time, the laser irradiation conditions were 532 nm, 80 msec, and 240 mW. Immediately after laser irradiation, 1 μL of each peptide at a concentration of 10 mg/mL or aflibercept at a concentration of 20 mg/mL, which was dissolved in PBS, was injected into the vitreous body using a syringe. Ten days after drug administration, the mice were anesthetized, and 2% fluorescein was administered to the abdominal cavity to stain blood vessels. The retina was photographed 2 to 3 minutes after fluorescein administration. The size and fluorescence value of CNV lesions induced by laser were measured using the ImageJ program, and in order to reduce the differences between subjects, the CTF (corrected total fluorescence) was calculated by removing the background, and the values of each group were compared. The results of all tests are expressed as mean±standard deviation, and significance was verified using one-way ANOVA and Kruskal-wallis test.

neovascularity = experiment: Eye drop efficacy to inhibit neovascularity in Vldlr knockout mice: lesion area by retinal fluorescence imaging; assay type: in vivo
Source text: A symptom of neovascular macular degeneration is retinal angiomatous proliferation (RAP), which occurs in approximately 12 to 15% of patients who are newly diagnosed with neovascular macular degeneration. Meanwhile, Vldlr is known to be one of the functional candidate genes for human macular degeneration, and mice in which Vldlr is knocked out (−/−) show retinal hemangioma proliferation along with subretinal neovascularization. Therefore, in order to evaluate the neovascularity inhibitory efficacy of the eye drop comprising the peptide of Example 43 (002-175), which was confirmed to be an excellent peptide through the above test examples, in Vldlr knockout (−/−) mice, an animal model of neovascular macular degeneration disease, an experiment was performed as follows.
From 6 weeks of age (P42) to 14 weeks of age (P98), Vldlr^−/− mice were instilled with the eye drop comprising the peptide of Example 43 (002-175) twice a day, and as a positive control group, aflibercept at a concentration of 20 mg/mL was intraocularly injected once, 1 μL each, into the vitreous body of 6 week old mice. The eyes of the mice were instilled with a mydriatic agent to dilate the pupils, and then the mice were anesthetized by intraperitoneal injection of ketamine (50 mg/kg) and rompun (23.32 mg/kg), and 2% fluorescein was injected to the abdominal cavity to stain blood vessels. Images were acquired through retinal fluorescence imaging, and the lesion area was calculated using the ImageJ program, and the results of the experiment are shown in FIGS. 10 and 11.

Row | solubility [1] | Compound | b-wave amplitude [3] | Size of lesion [4] | CTF (corrected total fluorescence) value [5] | also measured
1 | ≥ 330 mg/mL | CC(C)C[C@H](NC(=O)CNC(=O)[C@H](CCC(=O)O)NC(=O)[C@H](CCC(N)=O)NC(=O)CNC(=O)[C@@H]1C[C@@H](O)CN1)C(=O)N[C@@H](C)C(=O)O [Example 40, Hyp-Gly-Gln-Glu-Gly-Leu-Ala] (H-[Hyp]GQEGLA-OH; N-terminus and C-terminus assumed) |  |  |  | 
2 | ≥ 500 mg/mL | CC(C)C[C@H](NC(=O)C(C)(C)NC(=O)[C@H](CCC(=O)O)NC(=O)[C@H](CCC(N)=O)NC(=O)CNC(=O)[C@@H]1C[C@@H](O)CN1)C(=O)N[C@@H](C)C(=O)O [Example 43, Hyp-Gly-Gln-Glu-Aib-Leu-Ala] (H-[Hyp]GQE[Aib]LA-OH; N-terminus and C-terminus assumed) |  |  |  | Solubility (in words) [1]: most excellent solubility; Stability (in words) ([2]; 40° C., 75% humidity, 7 days): most excellent stability
3 | 100 mg/mL (≈ 135 mM) | CC(C)C[C@H](NC(=O)[C@@H](NC(=O)[C@H](CCC(=O)O)NC(=O)[C@H](CCC(N)=O)NC(=O)CNC(=O)[C@@H]1C[C@@H](O)CN1)C(C)(C)C)C(=O)N[C@@H](C)C(=O)O [Example 44, Hyp-Gly-Gln-Glu-tert-Leu-Leu-Ala] (H-[Hyp]GQE[Tle]LA-OH; N-terminus and C-terminus assumed) |  |  |  | 
4 |  | Hyp-Gly-Gln-Glu-Leu-Leu-Ala ([Hyp]GQELLA) [Example 41] | 510 μV | 4,960 μm^2 | + (+: 300,000 to 800,000) | Content after 7 days ([2]; 40° C., 75% humidity, 7 days): 97.555%; Decrease rate ([2]; 40° C., 75% humidity, after 7 days): 0.600%; Initial content ([2]; HPLC, initial): 98.155%
5 |  | Hyp-Gly-Gln-Glu-Val ([Hyp]GQEV) [Example 37] | 400 μV | 5,775 μm^2 | + (+: 300,000 to 800,000) | 
6 |  | Hyp-Gly-Gln-Glu-Val-Leu-Ala ([Hyp]GQEVLA) [Example 42] | 380 μV | 6,102 μm^2 | + (+: 300,000 to 800,000) | 
7 |  | aflibercept [reference compound] | 398 μV | 5,437 μm^2 | + (+: 300,000 to 800,000) | Size of the lesion (area of new blood vessels), course during administration (in words) (neovascularity; P42 to P98, for aflibercept from the 2nd week): gradually increased again; Size of the lesion (area of new blood vessels), 1 week after administration (in words) (neovascularity; P49): reduced rapidly; Size of the lesion (area of new blood vessels), after 8 weeks (in words) (neovascularity; P98): reached a size similar to that of the group administered with vehicle
